Measurements: patent US7390923B2, “Propionamide derivatives useful as androgen receptor modulators” (Orion Corporation, priority 2003, dated 2008)

Biological target: T1, androgen receptor (AR) (Rattus norvegicus, UniProt P15207)
T1 construct: Ventral prostates were obtained form rats castrated 24 h prior to sacrifice; from tissue; host or cells: rat ventral prostate cytosol (castrated rats, charcoal-treated)
T1 sequence (P15207 1-902): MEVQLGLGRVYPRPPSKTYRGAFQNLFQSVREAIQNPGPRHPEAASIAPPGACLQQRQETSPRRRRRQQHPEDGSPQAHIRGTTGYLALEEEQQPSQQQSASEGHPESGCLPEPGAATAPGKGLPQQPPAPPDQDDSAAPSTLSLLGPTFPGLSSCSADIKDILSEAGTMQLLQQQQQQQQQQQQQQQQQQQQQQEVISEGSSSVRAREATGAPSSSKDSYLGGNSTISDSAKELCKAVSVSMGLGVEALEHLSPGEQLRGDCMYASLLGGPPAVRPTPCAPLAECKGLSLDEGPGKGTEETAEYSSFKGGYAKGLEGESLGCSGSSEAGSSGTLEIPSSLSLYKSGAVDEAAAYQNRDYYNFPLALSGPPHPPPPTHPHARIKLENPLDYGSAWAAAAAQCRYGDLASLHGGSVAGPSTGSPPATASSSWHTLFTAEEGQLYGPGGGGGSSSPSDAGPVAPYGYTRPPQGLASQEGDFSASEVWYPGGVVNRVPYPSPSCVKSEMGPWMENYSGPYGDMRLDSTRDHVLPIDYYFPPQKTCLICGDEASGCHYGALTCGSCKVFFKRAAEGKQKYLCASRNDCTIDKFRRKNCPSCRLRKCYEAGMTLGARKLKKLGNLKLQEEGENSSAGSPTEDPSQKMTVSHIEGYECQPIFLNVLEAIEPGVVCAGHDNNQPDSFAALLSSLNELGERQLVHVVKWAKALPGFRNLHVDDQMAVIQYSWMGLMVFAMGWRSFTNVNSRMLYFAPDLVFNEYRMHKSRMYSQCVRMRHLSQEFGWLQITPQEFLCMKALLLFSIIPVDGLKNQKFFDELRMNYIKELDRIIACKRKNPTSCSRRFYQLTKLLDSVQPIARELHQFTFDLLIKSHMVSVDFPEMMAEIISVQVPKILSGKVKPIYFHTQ
Assay: AR binding assay, competition with [3H]-mibolerone binding in rat ventral prostate cytosol
Details: 1 nM [3H]-mibolerone, overnight at 0° C.; for inhibition at 0.2 µM: test compound 0.2 μM; for inhibition at 2 µM: test compound 2.0 μM
Procedure: Ventral prostates were obtained form rats castrated 24 h prior to sacrifice. Fresh prostate was minced and washed with Buffer A (Schilling and Liao, Prostate, 5:581-588, 1984). The minces were then homogenized in 3× volume of Buffer A containing protease inhibitors (Complete, Mini, EDTA-free Roche). The homogenate was centrifuged at 30000 g for 30 min. The resultant supernatants were treated with 1×volume of dextran-coated charcoal solution (12.5 g activated charcoal, 12.5 g dextran per liter of buffer A) to remove endogenous steroids. The samples were incubated for 5 min and centrifuged at 16000 g for 10 min. Aliquots of the charcoal-treated cytosol were taken for androgen receptor assays. All procedures were carried out at 0-4° C.
Cytosol androgen receptor concentration was determined as described (Isomaa et al., Endocrinology, 111: 833-843, 1982) with minor modifications. Cytosol preparations were prepared as described above, and bound and free steroids were separated by treatment with an equal volume of dextran-charcoal suspension for 5 min at 4° C. followed by centrifugation at 16000 g for 10 min. Bound radioactivity was determined by counting supernatant fractions in 1 ml of OptiPhase HiSafe3 or OptiPhase Supermix (PerkinElmer).
Cytosol preparations were labelled with 1 nM [^3H]-mibolerone overnight at 0° C. (total). To determine AR binding activity of the compounds of the present invention (test compounds), the ability of test compounds to compete with [^3H]7α,17α-dimethyl-17β-hydroxy-4-estren-3-one ([^3H]-mibolerone) binding was studied. 1 nM [^3H]-mibolerone and test compounds in two concentrations (0.2 and 2 uM) were incubated overnight at 0° C. To determine non-specific binding, parallel incubations were carried out using 1 nM concentration [^3H]-mibolerone with 500-fold molar excess of unlabelled testosterone. Two to four replicates were used for each sample. After incubation, bound and free steroids were separated as described above and bound radioactivity was determined. The ability of the test compounds to bind AR is reported as reduction in bound radioactivity obtained with 1 nM [^3H]-mibolerone. The results (% inhibition) were calculated as: % inhibition=100−(100×(averagetest compound/averagetotal)).

SMILES | inhibition at 0.2 µM [%] | inhibition at 2 µM [%]
Cc1cc(NC(=O)C(C)(O)COc2ccc(Cl)cc2)ccc1[N+](=O)[O-] (stereo not drawn) [Example 23, 3-(4-Chlorophenoxy)-2-hydroxy-2-methyl-N-(3-methyl-4-nitrophenyl)propionamide] | 88 | 92
Cc1cc(NC(=O)C(C)(O)COc2ccc(C#N)c(Cl)c2)ccc1[N+](=O)[O-] (stereo not drawn) [Example 63, 3-(3-Chloro-4-cyanophenoxy)-2-hydroxy-2-methyl-N-(3-methyl-4-nitrophenyl)propionamide] | 92 | 98
Cc1cc(NC(=O)C(C)(O)COc2ccc(Cl)c([N+](=O)[O-])c2)ccc1[N+](=O)[O-] (stereo not drawn) [Example 44, 3-(4-Chloro-3-nitrophenoxy)-2-hydroxy-2-methyl-N-(3-methyl-4-nitrophenyl)propionamide] | 83 | 100
CC(=O)c1ccc(OCC(C)(O)C(=O)Nc2ccc([N+](=O)[O-])c(C)c2)cc1 (stereo not drawn) [Example 16, 3-(4-Acetylphenoxy)-2-hydroxy-2-methyl-N-(3-methyl-4-nitrophenyl)propionamide] | 50 | 91
Cc1cc(NC(=O)C(C)(O)COc2ccc(Cl)c(Cl)c2)ccc1[N+](=O)[O-] (stereo not drawn) [Example 6, 3-(3,4-Dichlorophenoxy)-2-hydroxy-2-methyl-N-(3-methyl-4-nitrophenyl)propionamide] | 68 | 95
CC(=O)Nc1ccc(OCC(C)(O)C(=O)Nc2ccc([N+](=O)[O-])c(C)c2)cc1 (stereo not drawn) [Example 1, 3-(4-Acetylaminophenoxy)-2-hydroxy-2-methyl-N-(3-methyl-4-nitrophenyl)propionamide] | 91 | 101
Cc1cc(NC(=O)C(C)(O)COc2ccc(C(F)(F)F)cc2)ccc1[N+](=O)[O-] (stereo not drawn) [Example 15, 2-Hydroxy-2-methyl-N-(3-methyl-4-nitrophenyl)-3-(4-trifluoromethylphenoxy)propionamide] | 46 | 77
Cc1cc(NC(=O)C(C)(O)COc2cc(C)c(Cl)c(C)c2Cl)ccc1[N+](=O)[O-] (stereo not drawn) [Example 29, 3-(2,4-Dichloro-3,5-dimethylphenoxy)-2-hydroxy-2-methyl-N-(3-methyl-4-nitrophenyl)propionamide] | 92 | 90
CC(O)(COc1ccc(C#N)c(F)c1)C(=O)Nc1ccc([N+](=O)[O-])c(C=O)c1 (stereo not drawn) [Example 66, 3-(4-Cyano-3-fluorophenoxy)-N-(3-formyl-4-nitrophenyl)-2-hydroxy-2-methylpropionamide] | 69 | 93
CC(=O)Nc1ccc(OCC(C)(O)C(=O)Nc2ccc([N+](=O)[O-])c(C)c2)cc1C(F)(F)F (stereo not drawn) [Example 31, 3-(4-Acetylamino-3-trifluoromethylphenoxy)-2-hydroxy-2-methyl-N-(3-methyl-4-nitrophenyl)propionamide] | 18 | 75
COc1ccc(OCC(C)(O)C(=O)Nc2ccc([N+](=O)[O-])c(C)c2)cc1 (stereo not drawn) [Example 25, 2-Hydroxy-3-(4-methoxyphenoxy)-2-methyl-N-(3-methyl-4-nitrophenyl)propionamide] | 96 | 98
Cc1cc(NC(=O)C(C)(O)COc2ccccc2)ccc1[N+](=O)[O-] (stereo not drawn) [Example 14, 2-Hydroxy-2-methyl-N-(3-methyl-4-nitrophenyl)-3-phenoxypropionamide] | 75 | 95
Cc1ccc(OCC(C)(O)C(=O)Nc2ccc([N+](=O)[O-])c(C)c2)cc1 (stereo not drawn) [Example 12, 2-Hydroxy-2-methyl-N-(3-methyl-4-nitrophenyl)-3-p-tolyloxypropionamide] | 77 | 101
COCc1ccc(OCC(C)(O)C(=O)Nc2ccc([N+](=O)[O-])c(C)c2)cc1 (stereo not drawn) [Example 81, 2-Hydroxy-3-(4-methoxymethylphenoxy)-2-methyl-N-(3-methyl-4-nitrophenyl)propionamide] | 85 | 98
Cc1cc(NC(=O)C(C)(O)COc2ccc(C(N)=O)cc2)ccc1[N+](=O)[O-] (stereo not drawn) [Example 5, 4-[2-Hydroxy-2-(3-methyl-4-nitrophenylcarbamoyl)propoxy]benzamide] | 25 | 74
Cc1cc(NC(=O)C(C)(O)COc2ccc(F)cc2)ccc1[N+](=O)[O-] (stereo not drawn) [Example 11, 3-(4-Fluorophenoxy)-2-hydroxy-2-methyl-N-(3-methyl-4-nitrophenyl)propionamide] | 98 | 105
Cc1cc(NC(=O)C(C)(O)CNc2ccc(C#N)c(Cl)c2)ccc1[N+](=O)[O-] (stereo not drawn) [Example 56, 3-(3-Chloro-4-cyanophenylamino)-2-hydroxy-2-methyl-N-(3-methyl-4-nitrophenyl)propionamide] | 90 | 95
Cc1cc(NC(=O)[C@@](C)(O)COc2ccc(C#N)c(F)c2)ccc1[N+](=O)[O-] [Example 43, (2S)-3-(4-Cyano-3-fluorophenoxy)-2-hydroxy-2-methyl-N-(3-methyl-4-nitrophenyl)propionamide] | 95 | 99
Cc1cc(NC(=O)C(C)(O)CNc2ccc(C#N)cc2)ccc1[N+](=O)[O-] (stereo not drawn) [Example 55, 3-(4-Cyanophenylamino)-2-hydroxy-2-methyl-N-(3-methyl-4-nitrophenyl)propionamide] | 87 | 99
Cc1cc(NC(=O)C(C)(O)COc2ccc3c(c2)OCO3)ccc1[N+](=O)[O-] (stereo not drawn) [Example 26, 3-(Benzo[1,3]dioxol-5-yloxy)-2-hydroxy-2-methyl-N-(3-methyl-4-nitrophenyl)propionamide] | 62 | 92
Cc1cc(NC(=O)C(C)(O)COc2ccc(C#N)c(F)c2)ccc1[N+](=O)[O-] (stereo not drawn) [Example 42, 3-(4-Cyano-3-fluorophenoxy)-2-hydroxy-2-methyl-N-(3-methyl-4-nitrophenyl)propionamide] | 83 | 97
